The values below are quoted from earlier work in US20120263660A1, “Hair Loss Treatment” (POP TEST CORTISOL LLC, priority 2011, published 2012).

Data set [1] concerns the target T1, glucocorticoid receptor [GR] (Homo sapiens, UniProt P04150).
T1 sequence (P04150 1-777): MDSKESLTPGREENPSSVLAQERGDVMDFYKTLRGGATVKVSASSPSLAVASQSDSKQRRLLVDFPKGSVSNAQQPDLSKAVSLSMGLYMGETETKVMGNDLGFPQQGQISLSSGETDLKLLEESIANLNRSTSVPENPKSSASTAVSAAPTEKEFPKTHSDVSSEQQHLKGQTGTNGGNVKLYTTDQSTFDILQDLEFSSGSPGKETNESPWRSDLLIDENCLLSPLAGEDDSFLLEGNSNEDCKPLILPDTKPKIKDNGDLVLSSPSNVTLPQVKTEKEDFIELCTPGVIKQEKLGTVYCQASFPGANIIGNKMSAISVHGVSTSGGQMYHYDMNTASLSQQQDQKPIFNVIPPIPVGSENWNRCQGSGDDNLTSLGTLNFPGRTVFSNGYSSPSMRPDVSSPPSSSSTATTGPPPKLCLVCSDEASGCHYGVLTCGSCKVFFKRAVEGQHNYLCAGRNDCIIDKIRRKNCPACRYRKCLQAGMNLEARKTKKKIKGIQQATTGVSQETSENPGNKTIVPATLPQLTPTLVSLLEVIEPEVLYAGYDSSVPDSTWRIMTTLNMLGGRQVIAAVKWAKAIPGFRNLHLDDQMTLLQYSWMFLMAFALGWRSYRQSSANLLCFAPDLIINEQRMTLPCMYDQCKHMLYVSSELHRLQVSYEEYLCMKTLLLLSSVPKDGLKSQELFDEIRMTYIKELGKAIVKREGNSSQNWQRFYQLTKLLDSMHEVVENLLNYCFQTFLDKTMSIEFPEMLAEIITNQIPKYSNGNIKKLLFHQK
Conditions: disclosed in U.S. Pat. No. 6,011,025.

The conditions of data set [2]: disclosed in U.S. Pat. No. 6,011,025.
The conditions of data set [3]: disclosed in U.S. Pat. No. 6,011,025. The source holds these as a separate data set.
Another data set deals with T2, progesterone receptor (Homo sapiens, UniProt P06401).
T2 sequence (P06401 1-933): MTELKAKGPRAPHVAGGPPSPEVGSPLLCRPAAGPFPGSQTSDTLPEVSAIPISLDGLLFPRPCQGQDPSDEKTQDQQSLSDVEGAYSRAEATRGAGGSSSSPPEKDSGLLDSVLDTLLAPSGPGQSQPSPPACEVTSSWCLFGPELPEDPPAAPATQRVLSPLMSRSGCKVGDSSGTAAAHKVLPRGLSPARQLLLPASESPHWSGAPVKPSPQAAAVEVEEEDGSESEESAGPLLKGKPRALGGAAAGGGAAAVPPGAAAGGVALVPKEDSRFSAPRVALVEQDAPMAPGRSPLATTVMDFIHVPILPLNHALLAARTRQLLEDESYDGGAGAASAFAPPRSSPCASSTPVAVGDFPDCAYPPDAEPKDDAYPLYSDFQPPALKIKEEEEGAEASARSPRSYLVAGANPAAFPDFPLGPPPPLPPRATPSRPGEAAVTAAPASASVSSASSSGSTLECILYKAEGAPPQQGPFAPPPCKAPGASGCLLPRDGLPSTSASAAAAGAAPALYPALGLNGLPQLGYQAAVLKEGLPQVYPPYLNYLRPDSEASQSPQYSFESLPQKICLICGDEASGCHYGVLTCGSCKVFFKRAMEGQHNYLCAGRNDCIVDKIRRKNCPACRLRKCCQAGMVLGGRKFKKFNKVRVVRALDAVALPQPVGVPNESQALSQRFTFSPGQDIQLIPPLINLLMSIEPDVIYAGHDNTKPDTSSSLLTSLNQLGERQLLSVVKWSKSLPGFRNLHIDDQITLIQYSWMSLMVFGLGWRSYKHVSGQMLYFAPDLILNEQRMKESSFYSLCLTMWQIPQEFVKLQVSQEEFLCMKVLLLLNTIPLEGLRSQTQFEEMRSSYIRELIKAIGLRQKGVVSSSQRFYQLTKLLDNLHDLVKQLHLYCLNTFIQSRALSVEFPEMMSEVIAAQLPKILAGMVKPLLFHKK
Conditions: specificity for GR blockade.

In another data set the test system is estrogen receptor. The following applies: specificity for GR blockade.
The conditions of data set [4]: all phase I and phase II clinical trials already performed.

The structures appear in SMILES notation.

Turning to `CC#C[C@]1(O)CC[C@H]2[C@@H]3CCC4=CC(=O)CCC4=C3[C@@H](c3ccc4c(c3)OCO4)C[C@@]21C` [ORG 34517], the GR binding affinity result in data set [1] is reported as “high”. Also, the androgenic activity result in data set [2] is listed as “low”. Besides, in data set [3], the progestagenic activity result is listed as “low”. For the same compound, the “cross-binding to progesterone receptor” value at progesterone receptor is listed as “without significant cross-binding”. In addition, in the data set with estrogen receptor, the “cross-binding to estrogen receptor” value is reported as “without significant cross-binding”. The “significant toxicities and side effects” value in data set [4] was “none were identified”.
